# According to patent publication US20230077362A1 (CORTEVA AGRISCIENCE LLC, priority 2019, published 2023):
# Like-named read-outs stand apart in the source and are kept apart here.
# Assays:
# [1] = system: Beet Armyworm (Spodoptera exigua) ("BAW"), second instar larvae; assay: Bioassay on beet armyworm (BAW), 128-well diet tray assay; assay type: in vivo; settings: for pest or weed control at 50 µg/cm2: Spodoptera exigua
# Procedure: (§1) Certain molecules disclosed in this document were tested against BAW and CL using procedures described in the following examples. In the reporting of the results, the “BAW & CL Rating Table” was used (See Table Section).
# (§2) Trays were covered with a clear self-adhesive cover and held at 25° C., 14:10 light-dark cycle for five to seven days. Percent mortality was recorded for the larvae in each well; activity in the eight wells was then averaged. The results are indicated in the table entitled “Table ABC: Biological Results” (See Table Section).
# [2] = system: Cabbage Looper (Trichoplusia ni) ("CL"), second instar larvae; assay: Bioassay on cabbage looper (CL), 128-well diet tray assay; assay type: in vivo; settings: Trichoplusia ni
# Procedure: as §1, §2
# [3] = read-out: BAW (Biological Results, rating)
# [4] = read-out: CL (Biological Results, rating)
Structure (SMILES),"pest or weed control at 50 µg/cm2 [1, 3]","pest or weed control at 50 µg/cm2 [2, 4]",further results
"CCCc1ccc(C)cc1N1C(=O)CS/C1=N\C(=O)Nc1ccc(-c2ncn(-c3ccc(S(F)(F)(F)(F)F)cc3)n2)cc1C#N [Compound J583, (Z)-1-(2-Cyano-4-(1-(4-(pentafluoro-λ^6-sulfaneyl)phenyl)-1H-1,2,4-triazol-3-yl)phenyl)-3-(3-(5-methyl-2-propylphenyl)-4-oxothiazolidin-2-ylidene)urea]",–,–,pest or weed control at 50 µg/cm2 ([1]; read-out: BAW rating): 50 to 100%; pest or weed control at 50 µg/cm2 ([2]; read-out: CL rating): 50 to 100%
"Cc1ccc(C(C)C)c(N2C(=O)CS/C2=N\C(=O)Nc2ccc(-c3ncn(-c4ccc(OC(F)(F)F)cn4)n3)cc2C(F)(F)F)c1 [Compound J260, (Z)-1-(3-(2-Isopropyl-5-methylphenyl)-4-oxothiazolidin-2-ylidene)-3-(4-(1-(5-(trifluoromethoxy)pyridin-2-yl)-1H-1,2,4-triazol-3-yl)-2-(trifluoromethyl)phenyl)urea]",50 to 100%,50 to 100%,–
"Cc1ccc(C(C)C)c(N2C(=O)CS/C2=N\C(=O)Nc2ccc(-c3ncn(-c4ccc(C(F)(F)F)cn4)n3)cc2Cl)c1 [Compound J295, (Z)-1-(2-Chloro-4-(1-(5-(trifluoromethyl)pyridin-2-yl)-1H-1,2,4-triazol-3-yl)phenyl)-3-(3-(2-isopropyl-5-methylphenyl)-4-oxothiazolidin-2-ylidene)urea]",50 to 100%,50 to 100%,–
"CC(=O)c1cc(-c2ncn(-c3ccc(OC(F)(F)F)cc3)n2)ccc1NC(=O)/N=C1\SCC(=O)N1c1cc(C)ccc1C(C)C [Compound J395, (Z)-1-(2-Acetyl-4-(1-(4-(trifluoromethoxy)phenyl)-1H-1,2,4-triazol-3-yl)phenyl)-3-(3-(2-isopropyl-5-methylphenyl)-4-oxothiazolidin-2-ylidene)urea]",–,–,pest or weed control at 50 µg/cm2 ([1]; read-out: BAW rating): 50 to 100%; pest or weed control at 50 µg/cm2 ([2]; read-out: CL rating): 50 to 100%
"COC(C)c1ccc(C)cc1N1C(=O)CS/C1=N\C(=O)Nc1ccc(-c2ncn(-c3ccc(OC(F)(F)F)cn3)n2)cc1F (stereo not drawn) [Compound J236, (Z)-1-(2-Fluoro-4-(1-(5-(trifluoromethoxy)pyridin-2-yl)-1H-1,2,4-triazol-3-yl)phenyl)-3-(3-(2-(1-methoxyethyl)-5-methylphenyl)-4-oxothiazolidin-2-ylidene)urea]",50 to 100%,50 to 100%,–
"CCCCc1ccc(OC)cc1N1C(=O)CS/C1=N\C(=O)Nc1ccc(-c2ncn(-c3ccc(OC(F)(F)F)cc3)n2)cc1F [Compound J45, (Z)-1-(3-(2-Butyl-5-methoxyphenyl)-4-oxothiazolidin-2-ylidene)-3-(2-fluoro-4-(1-(4-(trifluoromethoxy)phenyl)-1H-1,2,4-triazol-3-yl)phenyl)urea]",50 to 100%,50 to 100%,–
"Cc1ccc(C(C)C)c(N2C(=O)CS/C2=N\C(=O)Nc2ccc(-c3ncn(-c4ccc(OC(F)(F)F)cn4)n3)cc2C#N)c1 [Compound J259, (Z)-1-(2-Cyano-4-(1-(5-(trifluoromethoxy)pyridin-2-yl)-1H-1,2,4-triazol-3-yl)phenyl)-3-(3-(2-isopropyl-5-methylphenyl)-4-oxothiazolidin-2-ylidene)urea]",50 to 100%,50 to 100%,–
"COC(c1ccc(C)cc1N1C(=O)CS/C1=N\C(=O)Nc1ccc(-n2cnc(-c3ccc(OC(F)(F)F)cc3)c2)cc1Cl)C(F)(F)F (stereo not drawn) [Compound J791, (Z)-1-(2-Chloro-4-(4-(4-(trifluoromethoxy)phenyl)-1H-imidazol-1-yl)phenyl)-3-(3-(5-methyl-2-(2,2,2-trifluoro-1-methoxyethyl)phenyl)-4-oxothiazolidin-2-ylidene)urea]",–,–,"BAW rating (% control or mortality class) ([1]; Table ABC, species BAW, 128-well diet tray assay, second instar larvae): A (50-100); mortality at 50 µg/cm2 ([2]; Table ABC, species CL, 128-well diet tray assay, second instar larvae, read-out: CL rating (% control or mortality class)): 50 to 100%"
"CCCc1ccc(N(C)C)cc1N1C(=O)CS/C1=N\C(=O)Nc1ccc(-c2ncn(-c3ccc(C(F)(F)F)cn3)n2)cc1F [Compound J282, (Z)-1-(3-(5-(Dimethylamino)-2-propylphenyl)-4-oxothiazolidin-2-ylidene)-3-(2-fluoro-4-(1-(5-(trifluoromethyl)pyridin-2-yl)-1H-1,2,4-triazol-3-yl)phenyl)urea]",50 to 100%,50 to 100%,–
